Source: patent publication US9028874B2, “Antioxidant nanosphere comprising [1,2]-dithiolane moieties” (Cedars-Sinai Medical Center, priority 2008, dated 2015)

What was measured:
[1] = DPPH radical scavenging assay, Method A (dissolved DPPH); assay type: biochemical; conditions: Method A: 50 μM DPPH dissolved in ethanol/water; violet to pale yellow
Description: Method A: 5 mL of 100 μM DPPH solution in ethanol was mixed with 5 mL of water, resulting in a final concentration of 50 μM for DPPH. Trolox and ascorbic acid were dissolved in 100 mM sodium phosphate buffer (pH 7.5, 2.5 mM). The concentration of α-tocopherol in nanospheres was adjusted to 2.5 mM. The predetermined amount of Trolox, ascorbic acid solution and nanospheres were added to the DPPH solution using Hamilton syringe carefully to the bottom of 20 mL glass bottle to minimize the premature mixing. After gentle mixing, pictures were taken using digital camera (50000 pxitex).
The antioxidant capability of the nanospheres was assessed by the scavenging activity of DPPH free radical. The DPPH radical scavenging assay is often used as a model for the measurement of lipid radial scavenging activity of antioxidant compounds. […] The DPPH radical scavenging assay is usually performed in a 50:50 mixture of water and organic solvents, commonly ethanol or dimethyl suloxide, in which the DPPH radical is completely dissolved. In this condition (Method A), the violet color of DPPH radical solution converted instantaneously to the pale yellow color, which is indicative of an instantaneous DPPH radical scavenging by the nanospheres (FIG. 6a, Method A).

[2] = DPPH radical scavenging assay, Method B (fine dispersed DPPH suspension); assay type: biochemical; conditions: Method B: DPPH suspension in water
Description: Method B: 400 μL of 1.25 mM DPPH solution in ethanol was added to 9500 μL of water to give a fine dispersed DPPH suspension. Pictures were taken as described above.
In the method B (FIG. 6a), 400 μL of 1.25 mM DPPH solution in ethanol was added to 9500 μL of water to give a fine dispersed DPPH suspension with the particle size of 164±26 nm (polydispersity index 0.03).

[3] = Nanosphere formation by spontaneous emulsification; hydrodynamic size and polydispersity by dynamic light scattering; assay type: physicochemical; conditions: 25 mg/5 mL acetone into 10 mL 0.25% w/v Pluronic F-68 in water
Description: Nanospheres were prepared according to the method using spontaneous emulsification with slight modification. Briefly, 25 mg of the compounds were dissolved in acetone (5 mL). The organic solution was poured under moderate stirring on a magnetic plate into an aqueous phase prepared by dissolving 25 mg of Pluronic F68 in 10 mL bidistilled water (0.25% w/v). Following 15 min of magnetic stirring, the acetone was removed under reduced pressure at room temperature. The nanospheres were filtered through 0.45 μm hydrophilic syringe filter and stored at 4° C. The hydrodynamic size measurement and size distribution of the nanospheres was performed by the dynamic light scattering (DLS) using a Coulter N4-Plus Submicron Particle Sizer (Coulter Corporation, Miami, Fla.). The nanospheres were purified by centrifuging three times at 20,000×g for 30 min at 25° C. and resuspending each time in the same volume of deionized water. […] The size was assessed on three separate batches of the nanosphere formulation. The recovery yield was calculated as follows: RY (%)=(mass of the mALA-containing compounds recovered/mass of the mALA-containing compounds used in formulation)×100%. […] The solution was analyzed for the compounds by RP-HPLC. Separation was performed using 80% acetonitrile (0.1% trifluoroacetic acid, TFA) as mobile phase and the eluent was monitored using UV detector at 330 nm. […]

formation of stable nanospheres [3] | Compound | DPPH radical scavenging (color change) [1] | DPPH radical scavenging (color change) [2]
– | O=C1O[C@H]([C@@H](O)CO)C(O)=C1O [ascorbic acid] | complete and occurred instantaneously | much less color changes
failure | O=C(CCCCC1CCSS1)OCCOCCOCCOCCOC(=O)CCCCC1CCSS1 (stereo not drawn) [Compound 4a, 2×Lipoic Acid/Tetraethylene Glycol] | – | –
– | Cc1c(C)c2c(c(C)c1O)CCC(C)(C(=O)O)O2 (stereo not drawn) [Trolox] | complete and occurred instantaneously | much less color changes
failure | O=C(CCCCC1CCSS1)OCCN1CCN(CCOC(=O)CCCCC2CCSS2)CC1 (stereo not drawn) [Compound 7a, 2×Lipoic acid/1,4-Bis(2-hydroxyethyl)-piperazine] | – | –
